Patent US20250170130A1, “MODULATORS OF MYC FAMILY PROTO-ONCOGENE PROTEIN” (Nalo Therapeutics, priority 2022, published 2025)

How the values were obtained:
MycN = molecular target: T1, MycN (Homo sapiens, UniProt P04198); test: Degradation of MycN protein in SK-N-BE(2) cells, JESS/Western blot of lysates; format: cell-based; details: SKNBE2, 24 h, SKNBE2 cells, 24 h; for Dmax at 0.5 µM: read-out: % Degradation of MycN (SKNBE2) 24 h, 0.5 μM; for Dmax at 1 µM: read-out: % Degradation of MycN (SKNBE2) 24 h, 1 μM; for Dmax at 3 µM: read-out: % Degradation of MycN (SKNBE2) 24 h, 3 μM; for Dmax at 6 µM: read-out: % Degradation of MycN (SKNBE2) 24 h, 6 μM
T1 construct: endogenous in cells; host or cells: SK-N-BE(2)
T1 sequence (P04198 1-464): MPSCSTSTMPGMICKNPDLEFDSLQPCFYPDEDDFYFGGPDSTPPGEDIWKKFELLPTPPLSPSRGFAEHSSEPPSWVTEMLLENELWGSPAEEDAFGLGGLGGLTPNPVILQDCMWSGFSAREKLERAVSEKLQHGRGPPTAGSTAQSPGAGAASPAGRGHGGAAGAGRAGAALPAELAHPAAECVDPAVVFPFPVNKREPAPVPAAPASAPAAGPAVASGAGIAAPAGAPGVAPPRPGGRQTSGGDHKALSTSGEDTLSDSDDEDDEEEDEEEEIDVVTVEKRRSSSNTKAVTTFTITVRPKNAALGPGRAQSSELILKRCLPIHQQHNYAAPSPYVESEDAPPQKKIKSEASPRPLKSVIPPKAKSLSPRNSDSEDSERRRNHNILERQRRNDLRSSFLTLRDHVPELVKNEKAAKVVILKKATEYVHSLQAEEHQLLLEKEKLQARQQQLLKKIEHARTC
Description: (§1) For L363 cells (suspension), 1E6 cells were plated into each well of a 6 well plate. For SK-N-BE(2) cells (adherent), 5E5 cells were plated into each well of a 6 well dish. Cells were cultured for 24 hrs then treated with exemplary compounds at 0.1, 0.5, 1.0, 3.0 and 6.0 mM final assay concentrations plus DMSO control. All compounds were diluted to 10 mM in DMSO. Cells were treated with the compound for 24 hrs, then for both cell types, media containing cells were removed from wells into a 15 ml centrifuge tube, and remaining adherent SK-N-BE(2) cells were also scraped from the wells into the appropriate tubes. Tubes were centrifuged, cells were washed with PBS then re-centrifuged to pellet cells. A RIPA buffer cocktail was added to the cells on ice for 5 mins. Cell lysates were clarified by centrifugation and stored at −80 degrees until required. BCA assay was performed on each lysate to determine the protein concentration.
(§2) Once an appropriate lysate concentration and antibody concentration was determined, samples were screened in the JESS technology (Protein Simple, San Jose, CA—https://www.proteinsimple.com/jess.html).
(§3) Target protein antibodies (n-myc and c-myc) were detected in the chemi-luminescence channel and loading controls (tubulin and GAPDH) were detected using a Near Infra Red (NIR) labeled secondary antibody.
For SK-N-EB2 adherent cells, 5E5 cells in 1.9 mls media were plated into 6 well dishes and incubated for 24 hrs. Exemplary compounds were added (100 ul, 1 in 20 dilution in media) to each well (final assay concentration 6, 3, 1 and […]) together with DMSO control wells and incubated for 24 hrs. Cells were scrapped off the plate, centrifuged, washed with PBS, centrifuged, then a RIPA buffer cocktail added to the cells (100 ul), centrifuged and stored at −80 for later analysis. For L363 suspension cells, 1E6 cells were plated into 24 well dishes (950 ul media) and incubated for 24 hrs. Exemplary compounds were added (50 ul, 1 in 20 dilution in media) to each well (final assay concentration 6, 3, 1 and […]) together with DMSO control wells and incubated for 24 hrs. Cells were aspirated into tubes, centrifuged, washed with PBS, centrifuged, then a RIPA buffer cocktail added to the cells (100 ul), centrifuged and stored at −80 for later analysis.
(§4) For Western blot, a BCA (total protein) assay was run on all samples, these were then run in batches of 5 compounds plus control (DMSO) on each Western blot run—n-myc and c-myc were run in separate experiments in the chemiluminescence channel. Both tubulin and GAPDH were run as loading controls in all lanes in the near infra red channel.

MycC = molecular target: T2, MycC (Homo sapiens, UniProt P01106); test: Degradation of MycC protein in L363 cells, JESS/Western blot of lysates; format: cell-based; details: L-363, 24 h, L-363 cells, 24 h; for Dmax at 0.5 µM: read-out: % Degradation of MycC (L-363) 24 h, 0.5 μM; for Dmax at 1 µM: read-out: % Degradation of MycC (L-363) 24 h, 1 μM; for Dmax at 3 µM: read-out: % Degradation of MycC (L-363) 24 h, 3 μM; for Dmax at 6 µM: read-out: % Degradation of MycC (L-363) 24 h, 6 μM
T2 construct: endogenous in cells; host or cells: L363
T2 sequence (P01106 whole entry): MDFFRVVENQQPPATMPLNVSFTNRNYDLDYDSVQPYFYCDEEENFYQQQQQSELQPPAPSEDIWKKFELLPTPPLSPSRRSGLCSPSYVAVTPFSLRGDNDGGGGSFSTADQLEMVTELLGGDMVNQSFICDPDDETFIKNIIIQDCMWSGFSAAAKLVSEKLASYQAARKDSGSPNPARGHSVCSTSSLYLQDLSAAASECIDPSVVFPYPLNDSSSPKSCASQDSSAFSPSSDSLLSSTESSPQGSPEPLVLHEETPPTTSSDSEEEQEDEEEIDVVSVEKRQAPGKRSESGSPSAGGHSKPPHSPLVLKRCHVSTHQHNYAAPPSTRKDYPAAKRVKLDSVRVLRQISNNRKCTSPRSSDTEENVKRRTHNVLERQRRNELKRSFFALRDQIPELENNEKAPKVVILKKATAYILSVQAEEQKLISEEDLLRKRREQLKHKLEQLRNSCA
Description: as §1, with “Cells were cultured for 24 hrs then treated with exemplary compounds at 0.1, 0.5, 1.0, 3.0 and 6.0 mM final assay concentrations plus DMSO control.” left out
as §2, §3
For SK-N-EB2 adherent cells, 5E5 cells in 1.9 mls media were plated into 6 well dishes and incubated for 24 hrs. […] Cells were scrapped off the plate, centrifuged, washed with PBS, centrifuged, then a RIPA buffer cocktail added to the cells (100 ul), centrifuged and stored at −80 for later analysis. For L363 suspension cells, 1E6 cells were plated into […] (950 ul media) and incubated for 24 hrs. […] Cells were aspirated into tubes, centrifuged, washed with PBS, centrifuged, then a RIPA buffer cocktail added to the cells (100 ul), centrifuged and stored at −80 for later analysis.
as §4

Row | SMILES | Dmax at 0.5 µM (MycN) [%] | Dmax at 1 µM (MycN) [%] | Dmax at 3 µM (MycN) [%] | Dmax at 6 µM (MycN) [%] | Dmax at 0.5 µM (MycC) [%] | Dmax at 3 µM (MycC) [%] | Dmax at 6 µM (MycC) [%] | Dmax at 1 µM (MycC) [%]
1 | CN1C[C@@H]2CN(c3nccc(Nc4cc(C5CC5)[nH]n4)n3)C[C@@H]2C1 [Compound 15, 2-[rac-(3aR,6aS)-2-methyl-1,3,3a,4,6,6a-hexahydropyrrolo[3,4-c]pyrrol-5-yl]-N-(5-cyclopropyl-1H-pyrazol-3-yl)pyrimidin-4-amine] | 20 to 49 | 20 to 49 | 50 to 79 | 80 to 100 | < 20 | 20 to 49 | 20 to 49 | 20 to 49
2 | c1cc(Nc2cc(C3CC3)[nH]n2)nc(N2C[C@H]3CNC[C@H]3C2)n1 [Compound 18, N-(5-Cyclopropyl-1H-pyrazol-3-yl)-2-[rac-(3aR,6aS)-2,3,3a,4,6,6a-hexahydro-1H-pyrolo[3,4-c]pyrrol-5-yl]pyrimidin-4-amine] | 20 to 49 | 50 to 79 | 80 to 100 | 80 to 100 | < 20 | < 20 | 20 to 49 | < 20
3 | CN(C)CCCNc1nccc(Nc2cc(C3CC3)[nH]n2)n1 [Compound 20, N4-(5-Cyclopropyl-1H-pyrazol-3-yl)-N2-[3-(dimethylamino)propyl]pyrimidine-2,4-diamine] | < 20 | < 20 | 20 to 49 | 50 to 79 | – | – | < 20 | –
4 | c1cc(Nc2cc(C3CC3)[nH]n2)nc(N2CC3(CCNC3)C2)n1 [Compound 25, N-(5-cyclopropyl-1H-pyrazol-3-yl)-2-(2,7-diazaspiro[3.4]octan-2-yl)pyrimidin-4-amine] | 20 to 49 | 20 to 49 | 20 to 49 | 20 to 49 | < 20 | – | – | < 20
5 | CN1CCC2(C1)CN(c1nccc(Nc3cc(C4CC4)[nH]n3)n1)C2 [Compound 26, N-(5-cyclopropyl-1H-pyrazol-3-yl)-2-(7-methyl-2,7-diazaspiro[3.4]octan-2-yl)pyrimidin-4-amine] | 20 to 49 | 20 to 49 | 20 to 49 | 50 to 79 | 20 to 49 | < 20 | – | 20 to 49
6 | c1cc(Nc2cc(C3CCCC3)[nH]n2)nc(N2CCC(C3CNC3)C2)n1 (stereo not drawn) [Compound 28, 2-[3-(azetidin-3-yl)pyrrolidin-1-yl]-N-(5-cyclopentyl-1H-pyrazol-3-yl)pyrimidin-4-amine] | – | 80 to 100 | 80 to 100 | 80 to 100 | < 20 | – | 50 to 79 | < 20

More lines, main results first:

Row | Dmax at 0.5 µM (MycN) [%] | Dmax at 1 µM (MycN) [%] | Dmax at 3 µM (MycN) [%] | Dmax at 6 µM (MycN) [%] | Dmax at 0.5 µM (MycC) [%] | Dmax at 3 µM (MycC) [%] | Dmax at 6 µM (MycC) [%] | SMILES | Dmax at 1 µM (MycC) [%]
7 | < 20 | 80 to 100 | 80 to 100 | 80 to 100 | < 20 | < 20 | < 20 | CNC[C@H]1CCCN(c2nccc(Nc3cc(C4CC4)[nH]n3)n2)C1 [Compound 16, N-(5-Cyclopropyl-1H-pyrazol-3-yl)-2-[(3R)-3-(methylaminomethyl)-1-piperidyl]pyrimidin-4-amine] | < 20
8 | 20 to 49 | 20 to 49 | 50 to 79 | 80 to 100 | – | < 20 | 80 to 100 | CN(C)[C@@H]1CCN(c2nccc(Nc3cc(C4CC4)[nH]n3)n2)C1 [Compound 17, N-(5-cyclopropyl-1H-pyrazol-3-yl)-2-[(3R)-3-(dimethylamino)pyrrolidin-1-yl]pyrimidin-4-amine] | –
9 | – | – | 20 to 49 | 20 to 49 | < 20 | – | – | CN[C@@H]1CCN(c2nccc(Nc3cc(C4CC4)[nH]n3)n2)C1 [Compound 19, N-(5-Cyclopropyl-1H-pyrazol-3-yl)-2-[(3R)-3-(methylamino)pyrrolidin-1-yl]pyrimidin-4-amine] | –
10 | 20 to 49 | < 20 | 20 to 49 | 20 to 49 | – | < 20 | 20 to 49 | CNC[C@@H]1CCN(c2nccc(Nc3cc(C4CC4)[nH]n3)n2)C1 [Compound 21, N-(5-Cyclopropyl-1H-pyrazol-3-yl)-2-[(3S)-3-(methylaminomethyl)pyrrolidin-1-yl]pyrimidin-4-amine] | –
11 | < 20 | < 20 | 20 to 49 | 50 to 79 | – | < 20 | 80 to 100 | CN(C)CC12CC(C1)N(c1nccc(Nc3cc(C4CC4)[nH]n3)n1)C2 [Compound 22, N-(5-Cyclopropyl-1H-pyrazol-3-yl)-2-[4-[(dimethylamino)methyl]-2-azabicyclo[2.1.1]hexan-2-yl]pyrimidin-4-amine] | –
12 | 20 to 49 | 50 to 79 | 80 to 100 | 80 to 100 | – | 80 to 100 | 80 to 100 | NC[C@H]1CCN(c2nccc(Nc3cc(C4CCCC4)[nH]n3)n2)C1 [Compound 23, 2-[(3R)-3-(aminomethyl)pyrrolidin-1-yl]-N-(5-cyclopentyl-1H-pyrazol-3-yl)pyrimidin-4-amine] | –
13 | 20 to 49 | 50 to 79 | 80 to 100 | 80 to 100 | < 20 | 80 to 100 | 80 to 100 | NC[C@@H]1CCCN(c2nccc(Nc3cc(C4CC4)[nH]n3)n2)C1 [Compound 24, 2-[(3S)-3-(aminomethyl)-1-piperidyl]-N-(5-cyclopropyl-1H-pyrazol-3-yl)pyrimidin-4-amine] | –
14 | 20 to 49 | 20 to 49 | 50 to 79 | 80 to 100 | < 20 | < 20 | 20 to 49 | CN1CC(C2CCN(c3nccc(Nc4cc(C5CCCC5)[nH]n4)n3)C2)C1 (stereo not drawn) [Compound 27, N-(5-cyclopentyl-1H-pyrazol-3-yl)-2-[3-(1-methylazetidin-3-yl)pyrrolidin-1-yl]pyrimidin-4-amine] | 20 to 49
